Assay results reported in the supplement of paper PMC8671470.
± gives the standard deviation of the averaged measurements.

Test system: HL-60
Experiment: cell viability (% survival relative to DMSO control); higher = less cytotoxic
Settings: 72 h
Summary of the method: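 A rescreen of the full library used HL-60 cells in RPMI 1640 with 10% FBS on 384-well plates, run in duplicate at five tenfold concentrations (1–10,000 nM). Each screen included DMSO or 100 nM of one of three metabolic inhibitors and ran 72 h at 37 °C, 5% CO2. CellTiter-Glo viability was scaled between DMSO and 10 μM proteasome-inhibitor wells. Any area under the curve comes from four-parameter log-logistic fits with drc and PharmacoGx.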

[1] = 0.001 µM, co-treatment: AZD3965 100 nM
[2] = 0.001 µM, co-treatment: DMSO vehicle
[3] = 0.001 µM, co-treatment: GSK2194069 100 nM
[4] = 0.001 µM, co-treatment: pictilisib 100 nM
[5] = 0.01 µM, co-treatment: AZD3965 100 nM
[6] = 0.01 µM, co-treatment: DMSO vehicle
[7] = 0.01 µM, co-treatment: GSK2194069 100 nM
[8] = 0.01 µM, co-treatment: pictilisib 100 nM
[9] = 0.1 µM, co-treatment: AZD3965 100 nM
[10] = 0.1 µM, co-treatment: DMSO vehicle
[11] = 0.1 µM, co-treatment: GSK2194069 100 nM
[12] = 0.1 µM, co-treatment: pictilisib 100 nM
[13] = 1 µM, co-treatment: AZD3965 100 nM
[14] = 1 µM, co-treatment: DMSO vehicle
[15] = 1 µM, co-treatment: GSK2194069 100 nM
[16] = 1 µM, co-treatment: pictilisib 100 nM
[17] = 10 µM, co-treatment: AZD3965 100 nM
[18] = 10 µM, co-treatment: DMSO vehicle
[19] = 10 µM, co-treatment: GSK2194069 100 nM
[20] = 10 µM, co-treatment: pictilisib 100 nM

SMILES | cell viability [1] [%] | cell viability [2] [%] | cell viability [3] [%] | cell viability [4] [%] | cell viability [5] [%] | cell viability [6] [%] | cell viability [7] [%] | cell viability [8] [%] | cell viability [9] [%] | cell viability [10] [%] | cell viability [11] [%] | cell viability [12] [%] | cell viability [13] [%] | cell viability [14] [%] | cell viability [15] [%] | cell viability [16] [%] | cell viability [17] [%] | cell viability [18] [%] | cell viability [19] [%] | cell viability [20] [%]
COc1cc2c(NC3CCN(C)CC3)nc(N3CCCN(C)CC3)nc2cc1OCCCN(C)C [UNC0224] | 102 ± 2.2 | 104 ± 2.2 | 114 ± 13 | 101 ± 1.9 | 101 ± 5.6 | 103 ± 7.6 | 113 ± 31 | 108 ± 0.28 | 100 ± 1.5 | 102 ± 6.9 | 96.8 ± 5.5 | 102 ± 9.6 | 99.416 ± 0.052 | 101 ± 1.8 | 96.3 ± 3.7 | 103 ± 1.8 | 95.6 ± 0.11 | 93.3 ± 4.4 | 91.9 ± 6.9 | 74.8 ± 9.6
CN(C)c1nc(O)c2[nH]cnc2n1 [2-Dimethylamino-6-hydroxypurine] | 98.9 ± 2.2 | 99.5 ± 1.3 | 98.8 ± 1.3 | 101 ± 8 | 97.93 ± 0.42 | 103 ± 8.9 | 110 ± 20 | 105 ± 3 | 100 ± 2.5 | 96.5 ± 1.1 | 92.4 ± 1.2 | 102.5 ± 0.56 | 97.6 ± 3 | 88.1 ± 12 | 104 ± 12 | 114 ± 16 | 101.2 ± 0.26 | 102 ± 4.7 | 108 ± 16 | 99 ± 9.8
O=C(O)c1cc2sccc2[nH]1 [4H-thieno[3,2-b]pyrrole-5-carboxylic acid] | 96.3 ± 5.8 | 101.92 ± 0.033 | 99.1 ± 7.8 | 109 ± 14 | 101 ± 5.4 | 101 ± 2.9 | 100.5 ± 0.55 | 94.5 ± 6.3 | 94.6 ± 11 | 103 ± 7.1 | 101.3 ± 0.73 | 97.3 ± 4.2 | 76.4 ± 8.7 | 97.47 ± 0.64 | 90.2 ± 1.1 | 84.3 ± 7.3 | 104 ± 11 | 104 ± 3.8 | 100 ± 9.4 | 99.3 ± 9.8
C1CCC(C(CC2CCCCN2)C2CCCCC2)CC1.O=C(O)/C=C\C(=O)O (stereo not given) [Perhexiline] | 101 ± 3.6 | 108 ± 3.6 | 104.6 ± 0.56 | 90.6 ± 16 | 95.4 ± 6.8 | 102 ± 4.9 | 91.3 ± 14 | 98.9 ± 25 | 108 ± 5.2 | 103 ± 3.9 | 99 ± 9.2 | 112.1 ± 0.54 | 99.1 ± 2.5 | 105 ± 2.4 | 86.4 ± 9.4 | 73.2 ± 25 | -0.971 ± 0.58 | -1.01 ± 1.6 | -1.86 ± 0.47 | -1.67 ± 0.61
O=C1Oc2ccccc2C(=O)C1CC1C(=O)Oc2ccccc2C1=O (stereo not given) [Dicumarol] | 101 ± 6 | 104 ± 3.1 | 122 ± 4.6 | 103 ± 4.7 | 73.3 ± 30 | 102 ± 6.2 | 62.5 ± 23 | 91 ± 15 | 100 ± 3.5 | 100 ± 1.2 | 95.5 ± 1.2 | 103 ± 9 | 101 ± 5.3 | 100 ± 8.3 | 98.8 ± 5.7 | 102 ± 11 | 97.7 ± 4 | 99.1 ± 4.8 | 85 ± 7 | 92.1 ± 5
CCOC(=O)N1c2ccc(C(F)(F)F)cc2[C@@H](N(Cc2cc(C(F)(F)F)cc(C(F)(F)F)c2)C(=O)OC)C[C@H]1CC [Torcetrapib] | 101 ± 1.8 | 104.8 ± 1 | 101 ± 10 | 113 ± 16 | 98.6 ± 2.3 | 99.13 ± 0.66 | 104 ± 15 | 105 ± 22 | 97.5 ± 4 | 98.7 ± 8.2 | 88 ± 9.7 | 83.6 ± 18 | 97.7 ± 6.2 | 103 ± 6.9 | 94.9 ± 7.2 | 100 ± 4.2 | 98.8 ± 5.5 | 100 ± 1.6 | 95.4 ± 16 | 117 ± 21
Nc1ccn([C@@H]2O[C@H](CO)[C@@H](O)[C@@H]2O)c(=O)n1 [Cytarabine] | 82 ± 32 | 80.7 ± 36 | 99.2 ± 2.5 | 103 ± 14 | 96.1 ± 7.4 | 102 ± 1.5 | 97.4 ± 1.3 | 101 ± 5.1 | 99.4 ± 4.1 | 101 ± 2.5 | 95.8 ± 1.5 | 84.52 ± 0.57 | 46.7 ± 9.3 | 59.5 ± 7 | 60.6 ± 3.9 | 30.9 ± 0.58 | 6.3 ± 2.2 | 6.92 ± 1.2 | 7.86 ± 0.42 | 6.83 ± 3
CC(C)C[C@H](NC(=O)[C@@H](O)[C@H](N)Cc1ccccc1)C(=O)O [Ubenimex] | 101 ± 4.3 | 104 ± 3.4 | 102 ± 3.6 | 99.1 ± 1.1 | 101 ± 11 | 103 ± 1.4 | 95.6 ± 11 | 93.2 ± 11 | 99.3 ± 9.9 | 102 ± 3.4 | 107 ± 2 | 104 ± 7.1 | 98.1 ± 2.2 | 97.6 ± 5.8 | 94 ± 4.7 | 79.3 ± 1.4 | 106 ± 2 | 95.3 ± 1.6 | 103 ± 5.7 | 98.8 ± 3.3
Cc1noc2c1-c1ccccc1C(c1ccc(Cl)cc1)=N[C@H]2CC(N)=O [CPI-0610] | 101 ± 2.2 | 96.3 ± 1.7 | 101 ± 1.7 | 104 ± 2.6 | 101 ± 1.5 | 95.3 ± 1.7 | 100.1 ± 0.39 | 94.4 ± 1.4 | 92 ± 14 | 98.8 ± 2.3 | 97.5 ± 6.9 | 75.5 ± 14 | 62.6 ± 7.4 | 74.8 ± 9.4 | 71.4 ± 2.1 | 45.8 ± 1.4 | 16.8 ± 1.1 | 23.7 ± 2.8 | 25.3 ± 6.1 | 8.68 ± 2.2
O=C(c1ccc(OCCN2CCCCC2)cc1)c1c(-c2ccc(O)cc2)sc2cc(O)ccc12 [Raloxifene] | 93 ± 9.2 | 85.9 ± 11 | 79.1 ± 13 | 104.6 ± 0.91 | 91.9 ± 19 | 80.4 ± 24 | 80.5 ± 22 | 94.1 ± 9 | 98 ± 1.4 | 101 ± 2.3 | 93.3 ± 1.2 | 99.7 ± 8.1 | 101 ± 8.2 | 97.14 ± 0.84 | 87.1 ± 23 | 105 ± 2.5 | 100.7 ± 0.99 | 101 ± 1.9 | 70.9 ± 18 | 113 ± 9.9
C=CCc1ccc2c(c1O)C(=O)c1ccccc1C2=O [R162] | 106 ± 5.3 | 103 ± 1.6 | 102 ± 2.1 | 102 ± 18 | 99.12 ± 0.61 | 103 ± 3.5 | 103 ± 8.4 | 101 ± 10 | 104 ± 4.1 | 98.1 ± 2.4 | 98.5 ± 4.3 | 101 ± 7.5 | 102 ± 1.3 | 100.6 ± 0.84 | 100 ± 2.6 | 104 ± 2.5 | 106 ± 4.2 | 97.8 ± 2.4 | 97.07 ± 0.71 | 90.6 ± 9.3
NC(=O)c1ncn([C@@H]2O[C@H](CO)[C@@H](O)[C@H]2O)n1 [Ribavirin] | 100 ± 3.5 | 100.3 ± 0.67 | 92.1 ± 6.2 | 105 ± 7.1 | 100 ± 4.4 | 102 ± 1.6 | 76.6 ± 27 | 106 ± 5 | 99.2 ± 3.9 | 102 ± 3 | 94.1 ± 5.5 | 101 ± 3 | 99.8 ± 4.1 | 97.1 ± 3.6 | 90.1 ± 14 | 107 ± 3.6 | 106 ± 2.2 | 104 ± 4.4 | 90.4 ± 12 | 104 ± 3.7
